Source: patent publication US20150272928A1, “INDOLE DERIVATIVES” (UNIVERSITY OF CENTRAL LANCASHIRE, priority 2012, published 2015)
“Also recorded” adds a separate entry of the source.

What was measured:
1321N1 cells [1] = assay: Reactive oxygen species detection assay (carboxy-H2DCFDA, flow cytometry), 1321N1 cells; assay type: cell-based; conditions: for ROS induction / oxidative stress: shift of H2DCFDA fluorescence signal compared to control: 1321N1, 500 μM, 1 h, flow cytometry, positive control TBHP 100 μM
Description: (§1) The inventors hypothesised that the active indoles were acting through a radical-based mechanism, which was most likely related to the generation of reactive oxygen species (ROS).^[6] As such, the inventors chose the Image-iT™ LIVE Green Reactive Oxygen Species Detection Kit from Invitrogen Ltd, UK, which is able to detect reactive oxygen species (ROS) in live cells, to assess selected indoles. Oxidatively stressed cells, when labeled with the carboxy-H2DCFDA dye provided, should generate fluorescence which is detectable using a confocal microscope and flow cytometry. Various assays were therefore performed in accordance with the following protocols.
(§2) 1321N1 cells were maintained in Dulbeccos's Modified Eagle's Medium (DMEM) supplemented with 10% (v/v) foetal bovine serum (FBS) and 2 mM L-glutamine, while the U87MG cell line was maintained in Essential Minimum Eagle Medium (EMEM) supplemented with 10% (v/v) FBS, 2 mM L-glutamine, 1 mM sodium pyruvate and 1% (v/v) non-essential amino acids (NEAA) (Lonza, UK) in a 37° C. humidified incubator supplied with 5% CO2. The 1321N1 and the U87MG cells were trypsinized and cultured overnight at a cell density of 10^4 cells/well/ml and were seeded in 6 well plates (BD Biosciences, UK) and were allowed to attach overnight. 2 ml of this cell suspension was added into each well resulting into a final concentration of 20,000 cells/well. On the day of experiment, cells were labelled with sufficient amount of 25 μM carboxy-H2DCFDA dye and were incubated for 30 min at 37° C., protected from light. Cells were then treated with 500 μM of indole 4 and positive control [tert-butyl hydroperoxide (TBHP)](100 μM) and negative control (indole 2) (500 μM) for 60 mins. Cells were gently washed with Hank[…]s balanced salt solution (HBSS) warm buffer three times and then trypsinized, centrifuged and resuspended in 300 μl PBS. Cells were filtered through cell strainer caps (35 μm mesh) to obtain a single cell suspension and analysed using a FACSAria flow cytometer (BD Biosciences). The untreated vehicle controls contained ≦0.5% absolute ethanol and DMSO as indole 4 was dissolved in absolute ethanol while TBHP and indole 2 were dissolved in DMSO.
(§3) In the event, to confirm and quantify the amount of fluorescence (due to ROS) produced, glioma cell lines 1321N1 and U87MG were seeded in separate 6 well plates and were left overnight to attach. On the day of the experiment the carboxy-H2DCFDA dye was added to the cells which were incubated for 30 min in the dark. Indoles 2, 3, 4 and 7 (500 μM) were then added, in separate experiments, and left for 1 h incubation. Cells were thoroughly washed at each step to prevent background staining and they were imaged immediately after incubation.

1321N1 cells [2] = assay: MTS assay, 1321N1 glioma cell line; assay type: cell-based; conditions: 48 h; for activity against the 1321N1 cell line (in words): MTS assay
Method: (§4) 1321N1 cells were maintained in Dulbeccos's Modified Eagle's Medium (DMEM) supplemented with 10% (v/v) foetal bovine serum (FBS) and 2 mM L-glutamine, while the U87MG cell line was maintained in Essential Minimum Eagle Medium (EMEM) supplemented with 10% (v/v) FBS, 2 mM L-glutamine, 1 mM sodium pyruvate and 1% (v/v) non-essential amino acids (NEAA) (Lonza, UK) in a 37° C. humidified incubator supplied with 5% CO2. The 1321N1 and the U87MG cells were trypsinized and cultured overnight at a cell density of 3500 cells/200 μl and 4000 cells/200 μl respectively in 96-well microtitre plates (Sarstedt, UK). The following day when the cells looked 50-60% confluent, each concentration of the commercial drugs and novel compounds mentioned above were added in quadruplicates and left for incubation for 48 hours. After 48 hours, 20 μl of the pre-warmed MTS reagent (Promega, UK) was added to each of the wells and the 96-well plates were incubated at 37° C. humidified incubator supplied with 5% CO2 for 60 min. At the end of 60 min, the absorbance was recorded at 490 nm using a Tecan GENios Pro® microplate reader. The concentration of compound that inhibits 50% of cell growth (IC50) compared to untreated vehicle controls containing ≦0.5% absolute ethanol was calculated by nonlinear regression analysis. Absolute ethanol was used in the vehicle controls as indole 4 was dissolved in absolute ethanol.

U87MG cells [3] = assay: Reactive oxygen species detection assay (carboxy-H2DCFDA, flow cytometry), U87MG cells; assay type: cell-based; conditions: 500 μM, 1 h, positive control TBHP 100 μM
Description: as §1, §2, §3

U87MG cells [4] = assay: MTS assay, U87MG glioma cell line; assay type: cell-based
Method: as §4

[5] = test system: primary cell culture (IN859); assay: IC50 against primary cell culture IN859 from a glioblastoma multiforme patient biopsy; assay type: cell-based; conditions: cells from a biopsy from a glioblastoma multiforme patient
Description: Based on these preliminary results the inventors were keen to discover if the effects would also be observed against a primary cell culture (IN859) from cells obtained from a biopsy from a glioblastoma multiforme patient.

U87MG cells [6] = assay: Acridine orange assay of acidic vesicular organelle (AVO) formation, U87MG cells; assay type: cell-based; conditions: 500 μM, 1 h, flow cytometry
Method: (§5) 1321N1 cells were maintained in Dulbeccos's Modified Eagle's Medium (DMEM) supplemented with 10% (v/v) foetal bovine serum (FBS) and 2 mM L-glutamine, while the U87MG cell line was maintained in Essential Minimum Eagle Medium (EMEM) supplemented with 10% (v/v) FBS, 2 mM L-glutamine, 1 mM sodium pyruvate and 1% (v/v) non-essential amino acids (NEAA) (Lonza, UK) in a 37° C. humidified incubator supplied with 5% CO2. The 1321N1 and the U87MG cells were trypsinized and cultured overnight at a cell density of 10^4 cells/well/ml and were seeded in 6 well plates (BD Biosciences, UK) and were allowed to attach overnight. 2 ml of this cell suspension was added into each well resulting into a final concentration of 20,000 cells/well. After 24 h of incubation, cells were treated with 500 μM of indole 4 for 60 min. After 60 min incubation with the compound the cells were stained with 3 μM acridine orange and incubated for 15 min at 37° C., protected from light. […] Cells were filtered through cell strainer caps (35 μm mesh) to obtain a single cell suspension and analysed using a FACSAria flow cytometer (BD Biosciences). […]
(§6) The glioma cells were seeded in 6 well plates and were left overnight to attach. The cells were then treated with indole 4 for 1 h, stained with acridine orange for 15 min, and were analysed by flow cytometry.

1321N1 cells [7] = assay: Acridine orange assay of acidic vesicular organelle (AVO) formation, 1321N1 cells; assay type: cell-based; conditions: 1321N1, 500 μM, 1 h, flow cytometry
Method: as §5, §6

1321N1 cells [8] = assay: MTS assay, 1321N1 glioma cell line; assay type: cell-based; conditions: 1321N1, co-treatment with ascorbic acid
[9] = Stability under acidic conditions; assay type: physicochemical
[10] = average and standard deviation of four repeats, dash = IC50 value not reached
[11] = 48 h, average and standard deviation of four repeats, dash = IC50 value not reached
[12] = Homo sapiens, 1321-N1, average and standard deviation of four repeats, dash = IC50 value not reached
[13] = Homo sapiens, U-87 MG, 48 h, average and standard deviation of four repeats, dash = IC50 value not reached

Row | Compound | ROS induction / oxidative stress: shift of H2DCFDA fluorescence signal compared to control (1321N1 cells [1]) | activity against the 1321N1 cell line (in words) (1321N1 cells [2]) | ROS induction / oxidative stress: shift of H2DCFDA fluorescence signal compared to control (U87MG cells [3]) | IC50 (1321N1 cells [2]; [12]) [µM] | IC50 (U87MG cells [4]; [13]) [µM] | other results
1 | COc1ccccc1-c1cc2ccccc2[nH]1 [Compound 7, 2-(2-methoxyphenyl)-1H-indole, reference compound] | no shift was observed | inactive | no shift was observed |  |  | activity against the U87MG cell line (in words) (U87MG cells [4]; MTS assay, 48 h): inactive
2 | N.N.[Cl][Pt][Cl] [cisplatin] |  | active |  |  |  | IC50 (1321N1 cells [2]; [10]): 11 ± 2 µM; IC50 (U87MG cells [4]; [11]): 310 ± 4 µM
3 | Oc1ccccc1-c1cc2ccccc2[nH]1 [Compound 4, 2-(1H-indol-2-yl)phenol] | shift of the fluorescence signal; also recorded: to a greater level than the positive control | active | shift of the fluorescence signal; also recorded: to a greater level than the positive control | 445 ± 4 | 379 ± 4 | IC50 [5]: 398 ± 3 µM; AVO formation (acridine orange red fluorescence) (U87MG cells [6]): increased amount of red fluorescence; AVO formation (acridine orange red fluorescence) (1321N1 cells [7]): increased amount of red fluorescence; level of fluorescence (ROS) on co-treatment with ascorbic acid (1321N1 cells [1]; 1321N1, indole 4 500 μM plus ascorbic acid 100 μM, data not shown): less than the vehicle control cells alone; cell viability in the presence of ascorbic acid (1321N1 cells [8]): cell viability was unaffected; cell viability in the presence of ascorbic acid (U87MG cells [4]; MTS assay, U87MG, co-treatment with ascorbic acid): cell viability was unaffected
4 | OCc1c[nH]c2ccccc12 [Compound 1, (1H-indol-3-yl)methanol] |  | active |  | 374 ± 2 | 585 ± 2 | 
5 | O=Cc1c(-c2ccccc2)[nH]c2ccccc12 [Compound 6, 2-phenyl-1H-indole-3-carbaldehyde] |  | inactive |  |  |  | activity against the U87MG cell line (in words) (U87MG cells [4]; MTS assay, 48 h): inactive
6 | OCc1c(-c2ccccc2)[nH]c2ccccc12 [Compound 3, (2-phenyl-1H-indol-3-yl)methanol] | shift of the fluorescence signal; also recorded: to a greater level than the positive control | active | shift of the fluorescence signal; also recorded: to a greater level than the positive control | 111 ± 1 | 176 ± 1 | stability under acidic conditions [9]: slightly unstable
7 | c1ccc(-c2cc3ccccc3[nH]2)cc1 [Compound 2, 2-phenyl-1H-indole] | no shift was observed | not able to inhibit the growth | no shift was observed |  | > 400 | MTS assay IC50 values 1321N1 (1321N1 cells [2]; [10]): does not reach its IC50; MTS assay IC50 values U87MG (U87MG cells [4]; [11]): does not reach its IC50; inhibition at 400 µM (U87MG cells [4]; Homo sapiens, U-87 MG, U87MG, at 400 μM, 48 h, read-out: maximum growth inhibition): 7%
